In patent US4931352A, “Antifungal fermentation product” (Merck & Co., Inc., priority 1989, dated 1990):
Starred links: 1 amine or outer side, 2 acyl side, 3 side chain; linkers in the order of their positions; H or OH if unused. Positions of bridges follow the written chain, without caps; N, C: chain ends. Non-standard residues stand in square brackets, D forms with d. Residues, ends and D or L forms follow the SMILES beside them. ξ: configuration not given here. *: point of attachment. ξOrn(4,5-diOH) = O=C(C(CC(O)C(O)N[*:3])N[*:1])[*:2]; ξhTyr(βξ-OH,γξ-OH) = NC(C(=O)O)C(O)C(O)c1ccc(O)cc1; ξPro(3ξ-OH,4ξ-Me) = CC1CNC(C(=O)O)C1O; X2 = NC(=O)CC(O)C(N[*:1])C(=O)[*:2]; X1 = CCC(C)CC(C)CCCCCCCCC(=O)*; Hyp = O=C(O)[CH]1C[CH](O)CN1

How the values were obtained:
[1] = system: filamentous fungi Cochliobolus miyabeanus, Penicillium sp. (three strains), Aspergillus niger, Trichoderma sp., Trichoderma liqnorum, Alternaria solani …; assay: disc diffusion method, filamentous fungi; type: cell-based; conditions: 25 microliter/disc, 28° C. or 37° C., 24 hours
Procedure: (§1) This may be seen in an antifungal assay employing a disc diffusion method against yeasts and filamentous fungi (molds).
(§2) In the disc diffusion method, seeded assay plates are first prepared in one of the following manners according to the type of organism.
Inocula for filamentous fungi are prepared by scraping the surface of stock plates maintained on potato dextrose agar with a moistened sterile dacron swab. The spores and mycelia are then suspended in 10 milliliters of sterile potato dextrose broth and adjusted to 70 percent transmission at 660 nm.
(§3) For three strains of Candida albicans and one strain of Saccharomyces cerevisiae, sterile saline is employed in place of potato dextrose broth. Assay plates are prepared by diluting the inoculum into appropriate molten agar medium, cooled to 45° C. to obtain a final concentration of 4 percent (volume/volume).
(§4) The seeded agar media thus prepared are dispensed into petri dishes for assays (11 milliliters per dish).
(§5) The samples to be tested for production of antifungal agent are applied to 6.2 mm. filter paper discs (25 microliter/disc) and air dried at 24° C. When the sample to be tested is a crude broth, it may be centrifuged prior to application. […] Following incubation, the inhibition zones are measured and recorded.

[2] = solubility in organic solvents; conditions: methanol, ethanol, dimethylformamide, dimethyl sulfoxide, ethyl acetate and the like
[3] = system: Candida albicans; assay: similar assay (MIC), expanded panel of 34 strains of Candida albicans; type: cell-based; conditions: 48 h; only against 5 of 34 strains of Candida albicans
Procedure: (§6) The activity may be seen in an agar dilution assay employing a yeast nitrogen base dextrose agar medium. In carrying out the assay, Compound I was solubilized in 10 percent dimethyl sulfoxide (DMSO) supplemented with one drop of Tween 20. Twofold dilutions were made with sterile distilled water/10 percent DMSO to obtain final drug concentrations in the agar dilution assay plates ranging from 128 to 0.06 μg/ml.
(§7) The yeast cultures, maintained in yeast maltose (YM) broth, were transferred to fresh YM medium and incubated overnight at 35° C. with shaking (250 rpm). After incubation, each culture was diluted in sterile saline to yield a final concentration of 3×10^5 to 3×10^6 colony forming units (CFU)/ml.
(§8) Each prepared plate was inoculated using a Denley Multipoint Inoculator (Denley, Sussex, England) which delivers approximately 0.001 milliliter to the ar surface resulting in inoculation of from 3×10^2 to 3×10^3 CFUs. The plates were incubated at 28° C. for 48 hours. The minimum inhibitory concentrations (MICs) were recorded as the lowest concentrations of drug showing no growth or less than three CFU/spot.
In a similar assay, Compound I was tested against an expanded panel of 34 different strains of Candida albicans and 13 different strains of Candida parapsilosis.

[4] = in vitro; type: cell-based; conditions: mouse; fresh blood of CD-1 female mice; 25° C., two hours; highest drug concentration that did not lyse the red blood cells; tested 0.39 to 400 μg/ml in 5 percent dextrose; read-out: minimum lytic concentration (MLC)
Procedure: The property of Compound I of requiring concentration of drug far above the therapeutic dose levels to effect red blood cell lysis was discovered in a standard titration/hemolysis assay using fresh blood drawn from CD-1 female mice. Concentration of drug in the range of from 0.39 to 400 μg/ml in 5 percent dextrose and a drug free control were employed.
In carrying out the determination, the assay tubes prepared by mixing together 2 milliliters of appropriate drug dilution and 0.5 milliliter of red blood cell suspension were gently shaken to mix the contents and then the tubes were incubated at 25° C. for two hours. At the end of this time, the tubes were examined visually for complete or partial red blood cell hemolysis and compared to a drug free control. […] The MLC for Compound I was 400 μg/ml.

[5] = system: Candida albicans; assay: agar dilution assay (MIC), Candida albicans; type: cell-based; conditions: C. albicans strain MY1029; possible media interference with drug activity
Procedure: as §6, §7, §8

[6] = system: Candida albicans; assay: mice infected with Candida albicans; type: in vivo
[7] = system: yeasts Saccharomyces cerevisiae, Candida albicans, Candida rugosa, Brettanomyces bruxellensis, Torulospora hansenii, Candida guilliermondii, Candida …; assay: disc diffusion method, yeasts; type: cell-based; conditions: 25 microliter/disc, 28° C. or 37° C., 24 hours
Procedure: as §1, §2
Inocula for yeasts are prepared from overnight broth cultures then diluted into potato dextrose […] to a final concentration of either 40 percent or 70 percent transmission at 660 nm.
as §3, §4
as §5, with “application. The discs bearing the material to be tested are then applied employing sterile conditions to the seeded assay plates and the samples rewet with 25 percent sterile aqueous dimethylsulfoxide (25 μl/disc).” for “application.”

SMILES: CCC(C)CC(C)CCCCCCCCC(=O)NC1CC(O)C(O)NC(=O)C2C(O)C(C)CN2C(=O)C(C(O)CC(N)=O)NC(=O)C(C(O)C(O)c2ccc(O)cc2)NC(=O)C2CC(O)CN2C(=O)C(C(C)O)NC1=O [Compound I, 1-[(4R, 5R)-4,5-dihydroxy-N^2-(10,12-dimethyl-1-oxotetradecyl)-L-ornithine]-5-(threo-3-hydroxy-L-glutamine)echinocandin B] (X1-[ξOrn(4,5-diOH)]T[Hyp][ξhTyr(βξ-OH,γξ-OH)][X2][ξPro(3ξ-OH,4ξ-Me)]; lactam 1-C; configuration not given here)
- antifungal properties (inhibition zones) [1]: good antifungal properties
- solubility in organic solvents [2]: soluble
- MIC [3]: > 1 µg/mL
- MNTC at 2 h [4]: 400 µg/mL
- growth observed (footnote to MIC) [5]: Substantially reduced growth was observed
- eradication of Candida albicans from kidneys ([6]; kidneys of experimentally infected mice): eradicate Candida albicans from kidneys
- survival of mice infected with Candida albicans ([6]; mice infected with Candida albicans): significantly prolong the survival
- antifungal properties (inhibition zones) [7]: good antifungal properties
